Test [1] concerns M. tuberculosis H37Rv Pasteur. Description: MIC determination, agar dilution method. Type of test: cell-based.
Test [2] concerns M. tuberculosis Erdman. Description: MIC determination, agar dilution method. It is filed as cell-based.
Test [3] deals with M. tuberculosis H37Rv-ΔcydAB. Description: microbe, parasite or virus in culture. Type of test: cell-based. As to conditions: Mycobacterium tuberculosis; for MIC50: 120 h.
The test system of test [4] is membranes from M. smegmatis wild-type strain MC2155. Type of test: biochemical. As to conditions: read-out: IC50 oxygen consumption.
Test [5] concerns membranes from M. smegmatis cytochrome bd knockout strain (ΔcydAB). Type of test: biochemical. Conditions: read-out: IC50 oxygen consumption.
Test [6] has as its system membranes from M. smegmatis cytochrome bc knockout strain (ΔqcrCAB). Type of test: biochemical.
Test [7] relates to isolated membranes from M. smegmatis. Conditions: cited from earlier work.
Test [8] has as its system isolated membranes from M. tuberculosis. As to conditions: cited from earlier work.
In test [9] the test system is whole cell M. smegmatis. Conditions: cited from earlier work.
For test [10], the system named is cytochrome bd knockout strain of M. smegmatis. As to conditions: cited from earlier work.
Test [11] concerns M. tuberculosis H37Rv-ΔcydAB. Also on record: species or system mouse (Balb/cBy). Conditions: mouse, in vivo, 25 mg/kg.

Values after ≈ are worked out from the molar mass of the structure shown. Like-named read-outs stand apart in the source and are kept apart here.

With `CCc1nc2ccc(Cl)cn2c1C(=O)NCc1ccc(C2CC3(C2)CN(S(=O)(=O)C(F)(F)F)C3)cc1` [JNJ-2901], the MIC was greater than 16 nM in test [1] (Mycobacterium tuberculosis, H37Rv reference strain, read-out: MIC); greater than 8 ng/mL in test [1] (Mycobacterium tuberculosis, strain H37Rv Pasteur, <1% of inoculum able to grow, read-out: MIC); greater than 8 ng/mL in test [1] (strain H37Rv Pasteur, <1% of inoculum able to grow); greater than 16 nM in test [2] (Mycobacterium tuberculosis, Erdman reference strain, read-out: MIC); greater than 8 ng/mL in [2] (Mycobacterium tuberculosis, strain Erdman, read-out: MIC); greater than 8 ng/mL in test [2] (strain Erdman). For the same molecule, in [3], the MIC50 came to 2.5 ± 0.1 nM (≈ 1.35 ng/mL). The half-inhibitory concentration (IC50) was 89 ± 54 nM in test [4] and 60 ± 26 nM in test [5]. Moreover, the “reduction of activity (oxygen consumption)” value in test [6] is on record as 20%.

For `CCc1nc2ccc(Cl)cn2c1C(=O)NCc1ccc(N2CCC(c3ccc(OC(F)(F)F)cc3)CC2)cc1` [Q203], the MIC in test [3] was roughly 2 nM (≈ 1.11 ng/mL); in test [9], greater than 50000 nM; in test [10], ~ 2.5 μM. The same molecule showed an MIC50 in test [3] of 2 ± 0.1 nM (≈ 1.11 ng/mL). Further, the IC50 in test [7] and in test [8] was roughly 20 nM in each case.

On to `COc1nc2ccc(Br)cc2cc1[C@@H](c1ccccc1)[C@@](O)(CCN(C)C)c1cccc2ccccc12` [bedaquiline, reference compound], for which the “reduction in bacterial load (lungs)” value in test [11] was 4.6 log.

Values taken from PMC11964921 (npj Drug Discovery, 2025).
